{"source": "patent US12459974B2", "about": "“Bicyclic peptide ligands specific for Nectin-4” (priority 2018, dated 2025)", "key": {"Panc2.13 xenograft": {"system": "Panc2.13 xenograft", "assay": "Example 9.7: in vivo efficacy in Panc2.13 xenograft in Balb/c nude mice", "conditions": "for Tumor volume: iv"}, "HT-1376 xenograft": {"system": "HT-1376 xenograft", "assay": "Example 2: in vivo efficacy in HT-1376 xenograft (bladder cancer model) in CB17-SCID mice"}, "[1]": {"conditions": "3 mg/kg biw, day 21, groups 8-17"}, "[2]": {"conditions": "3 mg/kg qw, day 21, groups 8-17"}, "[3]": {"conditions": "5 mg/kg qw, day 21, groups 8-17"}}, "note": "*1 amine or outer side, *2 acyl side, *3 side chain or, on linkers, in order; H or OH if unused. Where a SMILES comes first, the peptide text is derived from it. Bridges are numbered along the chain shown (N, C = ends). Roman numbers before positions name the chains, in order. [ ]: non-standard residue; d: D form. The star is where a group is joined. ξ: configuration not given here. TATA = O=C(CC[*:1])N1CN(C(=O)CC[*:2])CN(C(=O)CC[*:3])C1; Dolaproine = CO[C@@H]([C@@H]1CCCN1)[C@@H](C)C(=O)O; X1 = CC[C@H](C)C(C(CC(=O)[*:2])OC)N(C)[*:1]; 1Nal = N[C@@H](Cc1cccc2ccccc12)C(=O)O; X3 = O=C(CCCC(=O)[*:2])NCCC(=O)[*:1]; PABC = O=C(OCc1ccc(N[*:1])cc1)[*:2]; Hyp = O=C(O)[C@@H]1C[C@@H](O)CN1; hArg = N=C(N)NCCCC[C@H](N)C(=O)O; Cit = NC(=O)NCCC[C@H](N)C(=O)O; X2 = CC(N*)[C@@H](O)c1ccccc1; ξNMeV = CNC(C(=O)O)C(C)C; ξV = CC(C)C(N)C(=O)O; Sar = CNCC(=O)O", "data": [{"smiles": "CC[C@H](C)C(C(CC(=O)N1CCC[C@H]1[C@H](OC)[C@@H](C)C(=O)NC(C)[C@@H](O)c1ccccc1)OC)N(C)C(=O)[C@@H](NC(=O)C(C(C)C)N(C)C(=O)OCc1ccc(NC(=O)[C@H](CCCNC(N)=O)NC(=O)C(NC(=O)CCCC(=O)NCCC(=O)N(C)CC(=O)N(C)CC(=O)N(C)CC(=O)N(C)CC(=O)N(C)CC(=O)N(C)CC(=O)N(C)CC(=O)N(C)CC(=O)N(C)CC(=O)N(C)CC(=O)N[C@H]2CSCCC(=O)N3CN4CN(C3)C(=O)CCSC[C@H](NC(=O)[C@@H](CC(=O)O)NC(=O)[C@H](Cc3cccc5ccccc35)NC(=O)[C@@H]3CCCN3C2=O)C(=O)N[C@@H](CCSC)C(=O)N[C@@H](CCCCNC(=N)N)C(=O)N[C@@H](CC(=O)O)C(=O)N[C@@H](Cc2c[nH]c3ccccc23)C(=O)N[C@@H](CO)C(=O)N[C@@H]([C@@H](C)O)C(=O)N2CCC[C@H]2C(=O)N2C[C@H](O)C[C@H]2C(=O)N[C@@H](Cc2c[nH]c3ccccc23)C(=O)N[C@H](C(N)=O)CSCCC4=O)C(C)C)cc1)C(C)C", "note": "(stereo partly drawn) [BCY8245, MMAE-PABC-Cit-Val-Glutaryl-BCY8234] (I: [Sar][Sar][Sar][Sar][Sar][Sar][Sar][Sar][Sar][Sar]CP[1Nal][dD]CM[hArg]DWSTP[Hyp]WC-NH2 / II: [ξV][Cit][PABC][ξNMeV]V[X1][Dolaproine]-X2; linker I:11-I:15-I:25 via TATA; linker I:N-II:N via X3)", "values": [{"measurement": "Tumor volume", "setting": "Panc2.13 xenograft; 5 mpk, qw, day 0 after the start of treatment", "result": 149, "unit": "mm^3"}, {"measurement": "Tumor volume", "setting": "Panc2.13 xenograft; 5 mpk, qw, day 2", "result": 180, "unit": "mm^3"}, {"measurement": "Tumor volume", "setting": "Panc2.13 xenograft; 5 mpk, qw, day 4", "result": 231, "unit": "mm^3"}, {"measurement": "Tumor volume", "setting": "Panc2.13 xenograft; 5 mpk, qw, day 7", "result": 242, "unit": "mm^3"}, {"measurement": "Tumor volume", "setting": "Panc2.13 xenograft; 5 mpk, qw, day 9", "result": 248, "unit": "mm^3"}, {"measurement": "Tumor volume", "setting": "Panc2.13 xenograft; 5 mpk, qw, day 11", "result": 231, "unit": "mm^3"}, {"measurement": "Tumor volume", "setting": "Panc2.13 xenograft; 5 mpk, qw, day 14", "result": 238, "unit": "mm^3"}, {"measurement": "T/C", "setting": "Panc2.13 xenograft; 5 mpk, qw, day 14", "result": 43.6, "unit": "%"}, {"measurement": "TGI", "setting": "Panc2.13 xenograft; 5 mpk, qw, day 14", "result": 77.5, "unit": "%"}, {"measurement": "Tumor Volume (Mean ± SEM)", "setting": "Panc2.13 xenograft; 5 mpk, qw, day 14", "result": "238 ± 40", "unit": "mm^3"}, {"measurement": "tumor response (in words)", "setting": "Panc2.13 xenograft; mouse, in vivo", "result": "tumor growth is restrained by BCY8245 but the tumor does not undergo regression"}, {"measurement": "antitumor activity (in words)", "setting": "HT-1376 xenograft; 1 mg/kg", "result": "slight antitumor activity"}, {"measurement": "TGI", "setting": "HT-1376 xenograft; [1]", "result": 72.3, "unit": "%"}, {"measurement": "Tumor volume (TV)", "setting": "HT-1376 xenograft; [1]", "result": 407, "unit": "mm^3"}, {"measurement": "TGI", "setting": "HT-1376 xenograft; [2]", "result": 50.9, "unit": "%"}, {"measurement": "Tumor volume (TV)", "setting": "HT-1376 xenograft; [2]", "result": 603, "unit": "mm^3"}, {"measurement": "TGI", "setting": "HT-1376 xenograft; [3]", "result": 66.0, "unit": "%"}, {"measurement": "Tumor volume (TV)", "setting": "HT-1376 xenograft; [3]", "result": 465, "unit": "mm^3"}, {"measurement": "Tumor volume", "setting": "HT-1376 xenograft; 1/3 mpk, qw, iv (1 mg/kg first week, 3 mg/kg following 2 weeks), day 0 after start of treatment (Table 14)", "result": "164 ± 16", "unit": "mm^3"}, {"measurement": "Tumor volume", "setting": "HT-1376 xenograft; 1/3 mpk, qw, iv (1 mg/kg first week, 3 mg/kg following 2 weeks), day 2 (Table 14)", "result": "184 ± 12", "unit": "mm^3"}, {"measurement": "Tumor volume", "setting": "HT-1376 xenograft; 1/3 mpk, qw, iv (1 mg/kg first week, 3 mg/kg following 2 weeks), day 4 (Table 14)", "result": "206 ± 14", "unit": "mm^3"}, {"measurement": "Tumor volume", "setting": "HT-1376 xenograft; 1/3 mpk, qw, iv (1 mg/kg first week, 3 mg/kg following 2 weeks), day 7 (Table 14)", "result": "265 ± 21", "unit": "mm^3"}, {"measurement": "Tumor volume", "setting": "HT-1376 xenograft; 1/3 mpk, qw, iv (1 mg/kg first week, 3 mg/kg following 2 weeks), day 9 (Table 14)", "result": "291 ± 10", "unit": "mm^3"}, {"measurement": "Tumor volume", "setting": "HT-1376 xenograft; 1/3 mpk, qw, iv (1 mg/kg first week, 3 mg/kg following 2 weeks), day 11 (Table 14)", "result": "281 ± 28", "unit": "mm^3"}, {"measurement": "Tumor volume", "setting": "HT-1376 xenograft; 1/3 mpk, qw, iv (1 mg/kg first week, 3 mg/kg following 2 weeks), day 14 (Table 14)", "result": "335 ± 16", "unit": "mm^3"}, {"measurement": "Tumor volume", "setting": "HT-1376 xenograft; 1/3 mpk, qw, iv (1 mg/kg first week, 3 mg/kg following 2 weeks), day 16 (Table 14)", "result": "354 ± 11", "unit": "mm^3"}, {"measurement": "Tumor volume", "setting": "HT-1376 xenograft; 1/3 mpk, qw, iv (1 mg/kg first week, 3 mg/kg following 2 weeks), day 18 (Table 14)", "result": "309 ± 19", "unit": "mm^3"}, {"measurement": "Tumor volume", "setting": "HT-1376 xenograft; 1/3 mpk, qw, iv (1 mg/kg first week, 3 mg/kg following 2 weeks), day 21 (Table 14)", "result": "347 ± 14", "unit": "mm^3"}, {"measurement": "T/C", "setting": "HT-1376 xenograft; 3 mpk, biw (Table 17)", "result": 38.1, "unit": "%"}, {"measurement": "TGI", "setting": "HT-1376 xenograft; 3 mpk, biw (Table 17)", "result": 72.3, "unit": "%"}, {"measurement": "Tumor volume", "setting": "HT-1376 xenograft; 3 mpk, biw, iv, day 0 after start of treatment (Table 15)", "result": "154 ± 30", "unit": "mm^3"}, {"measurement": "Tumor volume", "setting": "HT-1376 xenograft; 3 mpk, biw, iv, day 2 (Table 15)", "result": "248 ± 58", "unit": "mm^3"}, {"measurement": "Tumor volume", "setting": "HT-1376 xenograft; 3 mpk, biw, iv, day 5 (Table 15)", "result": "203 ± 15", "unit": "mm^3"}, {"measurement": "Tumor volume", "setting": "HT-1376 xenograft; 3 mpk, biw, iv, day 7 (Table 15)", "result": "273 ± 45", "unit": "mm^3"}, {"measurement": "Tumor volume", "setting": "HT-1376 xenograft; 3 mpk, biw, iv, day 9 (Table 15)", "result": "356 ± 50", "unit": "mm^3"}, {"measurement": "Tumor volume", "setting": "HT-1376 xenograft; 3 mpk, biw, iv, day 12 (Table 15)", "result": "391 ± 53", "unit": "mm^3"}, {"measurement": "Tumor volume", "setting": "HT-1376 xenograft; 3 mpk, biw, iv, day 14 (Table 15)", "result": "407 ± 53", "unit": "mm^3"}, {"measurement": "Tumor volume", "setting": "HT-1376 xenograft; 3 mpk, biw, day 14 values of Table 15, Mean ± SEM (Table 17)", "result": "407 ± 53", "unit": "mm^3"}, {"measurement": "T/C", "setting": "HT-1376 xenograft; 3 mpk, qw (Table 17)", "result": 56.4, "unit": "%"}, {"measurement": "TGI", "setting": "HT-1376 xenograft; 3 mpk, qw (Table 17)", "result": 50.9, "unit": "%"}, {"measurement": "Tumor volume", "setting": "HT-1376 xenograft; 3 mpk, qw, iv, day 0 after start of treatment (Table 15, groups 8-17)", "result": "153 ± 26", "unit": "mm^3"}, {"measurement": "Tumor volume", "setting": "HT-1376 xenograft; 3 mpk, qw, iv, day 2 (Table 15)", "result": "254 ± 53", "unit": "mm^3"}, {"measurement": "Tumor volume", "setting": "HT-1376 xenograft; 3 mpk, qw, iv, day 5 (Table 15)", "result": "298 ± 69", "unit": "mm^3"}, {"measurement": "Tumor volume", "setting": "HT-1376 xenograft; 3 mpk, qw, iv, day 7 (Table 15)", "result": "398 ± 61", "unit": "mm^3"}, {"measurement": "Tumor volume", "setting": "HT-1376 xenograft; 3 mpk, qw, iv, day 9 (Table 15)", "result": "468 ± 73", "unit": "mm^3"}, {"measurement": "Tumor volume", "setting": "HT-1376 xenograft; 3 mpk, qw, iv, day 12 (Table 15)", "result": "502 ± 67", "unit": "mm^3"}, {"measurement": "Tumor volume", "setting": "HT-1376 xenograft; 3 mpk, qw, iv, day 14 (Table 15)", "result": "603 ± 76", "unit": "mm^3"}, {"measurement": "Tumor volume", "setting": "HT-1376 xenograft; 3 mpk, qw, day 14 values of Table 15, Mean ± SEM (Table 17)", "result": "603 ± 76", "unit": "mm^3"}, {"measurement": "T/C", "setting": "HT-1376 xenograft; 3 mpk, qw, day 21 (Table 16)", "result": 39.2, "unit": "%"}, {"measurement": "TGI", "setting": "HT-1376 xenograft; 3 mpk, qw, day 21 (Table 16)", "result": 74.5, "unit": "%"}, {"measurement": "Tumor volume", "setting": "HT-1376 xenograft; 3 mpk, qw, day 21, Mean ± SEM (Table 16)", "result": "347 ± 14", "unit": "mm^3"}, {"measurement": "T/C", "setting": "HT-1376 xenograft; 5 mpk, qw (Table 17)", "result": 43.5, "unit": "%"}, {"measurement": "TGI", "setting": "HT-1376 xenograft; 5 mpk, qw (Table 17)", "result": 66.0, "unit": "%"}, {"measurement": "Tumor volume", "setting": "HT-1376 xenograft; 5 mpk, qw, iv, day 0 after start of treatment (Table 15)", "result": "153 ± 15", "unit": "mm^3"}, {"measurement": "Tumor volume", "setting": "HT-1376 xenograft; 5 mpk, qw, iv, day 2 (Table 15)", "result": "237 ± 41", "unit": "mm^3"}, {"measurement": "Tumor volume", "setting": "HT-1376 xenograft; 5 mpk, qw, iv, day 5 (Table 15)", "result": "228 ± 36", "unit": "mm^3"}, {"measurement": "Tumor volume", "setting": "HT-1376 xenograft; 5 mpk, qw, iv, day 7 (Table 15)", "result": "317 ± 31", "unit": "mm^3"}, {"measurement": "Tumor volume", "setting": "HT-1376 xenograft; 5 mpk, qw, iv, day 9 (Table 15)", "result": "394 ± 20", "unit": "mm^3"}, {"measurement": "Tumor volume", "setting": "HT-1376 xenograft; 5 mpk, qw, iv, day 12 (Table 15)", "result": "438 ± 31", "unit": "mm^3"}, {"measurement": "Tumor volume", "setting": "HT-1376 xenograft; 5 mpk, qw, iv, day 14 (Table 15)", "result": "465 ± 33", "unit": "mm^3"}, {"measurement": "Tumor volume", "setting": "HT-1376 xenograft; 5 mpk, qw, day 14 values of Table 15, Mean ± SEM (Table 17)", "result": "465 ± 33", "unit": "mm^3"}, {"measurement": "efficacy (in words)", "setting": "HT-1376 xenograft; after increasing dosage to 3 mg/kg from day 7", "result": "better efficacy"}, {"measurement": "anti-tumour activity (in words)", "setting": "HT-1376 xenograft; mouse, in vivo", "result": "good anti-tumour activity"}]}]}
